Assay results published in PubChem BioAssay (NCI).
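Test compounds were applied to cells in 96-well plates for 48 hours at 5 doses. Definition used: TGI = concentration required for complete inhibition of growth.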

Legend:
Experiment in all cases: growth of human tumour cells (NCI), 48 h
SW-620 colon = system: SW-620 colon
U251 CNS = system: U251 CNS
HS 578T breast = system: HS 578T breast
SF-295 CNS = system: SF-295 CNS
NCI-H226 lung = system: NCI-H226 lung
T-47D breast = system: T-47D breast
SNB-75 CNS = system: SNB-75 CNS
CAKI-1 renal = system: CAKI-1 renal
HL-60(TB) leukemia = system: HL-60(TB) leukemia
UO-31 renal = system: UO-31 renal
HOP-92 NSCLC = system: HOP-92 NSCLC
SK-MEL-5 melanoma = system: SK-MEL-5 melanoma
MOLT-4 leukemia = system: MOLT-4 leukemia
PC-3 prostate = system: PC-3 prostate
KM12 colon = system: KM12 colon
HCT-15 colon = system: HCT-15 colon
MALME-3M melanoma = system: MALME-3M melanoma
A549 NSCLC = system: A549 NSCLC
LOX IMVI melanoma = system: LOX IMVI melanoma
MDA-MB-231 breast = system: MDA-MB-231 breast
A498 renal = system: A498 renal
SN12C renal = system: SN12C renal
M14 melanoma = system: M14 melanoma
SR leukemia = system: SR leukemia
IGROV1 ovarian = system: IGROV1 ovarian
HT29 colon = system: HT29 colon
SK-MEL-2 melanoma = system: SK-MEL-2 melanoma
OVCAR-3 ovarian = system: OVCAR-3 ovarian
EKVX NSCLC = system: EKVX NSCLC
CCRF-CEM leukemia = system: CCRF-CEM leukemia
SNB-19 CNS = system: SNB-19 CNS
NCI-H522 lung = system: NCI-H522 lung
MDA-MB-435 = system: MDA-MB-435
RPMI-8226 leukemia = system: RPMI-8226 leukemia
RXF 393 renal = system: RXF 393 renal
SK-MEL-28 melanoma = system: SK-MEL-28 melanoma
OVCAR-8 ovarian = system: OVCAR-8 ovarian
TK-10 renal = system: TK-10 renal
HOP-62 NSCLC = system: HOP-62 NSCLC
MDA-N = system: MDA-N
OVCAR-5 ovarian = system: OVCAR-5 ovarian
786-0 renal = system: 786-0 renal
UACC-257 melanoma = system: UACC-257 melanoma
NCI/ADR-RES ovarian = system: NCI/ADR-RES ovarian
SF-268 CNS = system: SF-268 CNS
BT-549 breast = system: BT-549 breast
UACC-62 melanoma = system: UACC-62 melanoma
ACHN renal = system: ACHN renal
OVCAR-4 ovarian = system: OVCAR-4 ovarian
HCC-2998 colon = system: HCC-2998 colon
NCI-H23 lung = system: NCI-H23 lung
SF-539 CNS = system: SF-539 CNS
HCT-116 colon = system: HCT-116 colon
MCF7 breast = system: MCF7 breast
SK-OV-3 ovarian = system: SK-OV-3 ovarian

Measured: TGI

COC(=O)C(=O)C(C(=O)OC)C(=O)C(=O)Nc1ccccc1C(N)=O (stereo not given)
> 100 µM: all assays above
